Like-named read-outs stand apart in the source and are kept apart here.
What was measured:
ER = ER (Homo sapiens (Human), UniProt P03372); assay: In-cell western blot analysis of ER for "B" compounds; format: cell-based; conditions: 16 hours, read-out: ICW DC50
In short: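 ER levels given as a percentage of untreated/DMSO-treated wells (100%). Detection used primary antibodies for 2 h at room temperature followed by 680 and 800 nm fluorescent secondaries at 1:1000 for 1 h, read by LI-COR imaging.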

[1] = Cell growth assay (WST-8) for "B" compounds; format: cell-based; conditions: T47D, read-out: Cell growth Inhibition in T47D cell line IC50
In short: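 Four-day compound exposure of cells plated at 1500/well the day before. Read-out is WST-8 (10%, 2.5 h, 37 °C) absorbance at 450 nm, normalized to vehicle control over three independent repeats.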

Sequence of ER (P03372 whole entry): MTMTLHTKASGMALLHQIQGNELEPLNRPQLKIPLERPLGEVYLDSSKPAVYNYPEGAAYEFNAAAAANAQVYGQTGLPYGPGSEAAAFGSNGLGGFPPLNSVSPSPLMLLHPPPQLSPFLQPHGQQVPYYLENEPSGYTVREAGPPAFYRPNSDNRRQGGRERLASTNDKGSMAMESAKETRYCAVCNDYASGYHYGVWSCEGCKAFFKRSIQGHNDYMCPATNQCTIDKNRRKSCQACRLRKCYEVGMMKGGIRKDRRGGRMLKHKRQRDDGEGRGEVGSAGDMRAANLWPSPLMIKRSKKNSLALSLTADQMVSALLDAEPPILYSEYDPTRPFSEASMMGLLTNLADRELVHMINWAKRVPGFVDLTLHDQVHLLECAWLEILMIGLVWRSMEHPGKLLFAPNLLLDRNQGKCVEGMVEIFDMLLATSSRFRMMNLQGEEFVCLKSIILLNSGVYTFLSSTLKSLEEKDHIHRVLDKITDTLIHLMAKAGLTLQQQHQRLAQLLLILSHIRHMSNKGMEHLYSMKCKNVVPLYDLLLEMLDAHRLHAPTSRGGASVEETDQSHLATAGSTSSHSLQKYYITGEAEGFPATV

DC50 (ER) [nM]	Compound	IC50 ([1]; T47D cell line) [nM]	IC50 [1] [nM]
10 to 100	O=C1CCC(N2Cc3c(ccc4c3OC[C@@H]3CN(C(=O)CN5CC(Oc6ccc([C@@H]7c8ccc(O)cc8CC[C@@H]7c7ccccc7)cc6)C5)CCN43)C2=O)C(=O)N1 (stereo partly drawn) [Compound B248, 3-((S)-7-(2-(3-(4-((1R,2S)-6-hydroxy-2-phenyl-1,2,3,4-tetrahydronaphthalen-1-yl)phenoxy)azetidin-1-yl)acetyl)-1-oxo-1,3,5,5a,6,7,8,9-octahydro-2H-pyrazino[1′,2′:4,5][1,4]oxazino[2,3-e]isoindol-2-yl)piperidine-2,6-dione]	< 1	
< 10	O=C1CCC(N2Cc3cc4c(cc3C2=O)OC[C@@H]2CN(CC(=O)N3CC5(CCN(c6ccc([C@@H]7c8ccc(O)cc8CC[C@@H]7c7ccccc7)cc6)CC5)C3)CCN42)C(=O)N1 (stereo partly drawn) [Compound B143, 3-((S)-3-(2-(7-(4-((1R,2S)-6-hydroxy-2-phenyl-1,2,3,4-tetrahydronaphthalen-1-yl)phenyl)-2,7-diazaspiro[3.5]nonan-2-yl)-2-oxoethyl)-8-oxo-1,2,3,4,4a,5,8,10-octahydro-9H-pyrazino[1′,2′: 4,5][1,4]oxazino[2,3-f]isoindol-9-yl)piperidine-2,6-dione]	< 1	
< 10	O=C1CCC(N2Cc3c(ccc4c3OCC43CCN(C(=O)CN4CC5(CC(Nc6ccc([C@@H]7c8ccc(O)cc8CC[C@@H]7c7ccccc7)cc6)C5)C4)CC3)C2=O)C(=O)N1 (stereo partly drawn) [Compound B168, 3-(1′-(2-(6-((4-((1R,2S)-6-hydroxy-2-phenyl-1,2,3,4-tetrahydronaphthalen-1-yl)phenyl)amino)-2-azaspiro[3.3]heptan-2-yl)acetyl)-6-oxo-6,8-dihydro-2H,7H-spiro[furo[2,3-e]isoindole-3,4′-piperidin]-7-yl)piperidine-2,6-dione]	< 1	
10 to 100	O=C1CCC(N2Cc3cc4c(cc3C2=O)CN(CC2COC3(CCN(c5ccc([C@@H]6c7ccc(O)cc7CC[C@@H]6c6ccccc6)cc5)CC3)OC2)C4)C(=O)N1 (stereo partly drawn) [Compound B355, 3-(6-((9-(4-((1R,2S)-6-hydroxy-2-phenyl-1,2,3,4-tetrahydronaphthalen-1-yl)phenyl)-1,5-dioxa-9-azaspiro[5.5]undecan-3-yl)methyl)-1-oxo-3,5,6,7-tetrahydropyrrolo[3,4-f]isoindol-2(1H)-yl)piperidine-2,6-dione]	< 1	
10 to 100	O=C1CCC(N2Cc3c(ccc4c3OC[C@H]3CN(C[C@@H]5CCN(c6ccc([C@@H]7c8ccc(O)cc8CC[C@@H]7c7ccccc7)cc6)C5)CCN43)C2=O)C(=O)N1 (stereo partly drawn) [Compound B215, 3-((R)-7-(((S)-1-(4-((1R,2S)-6-hydroxy-2-phenyl-1,2,3,4-tetrahydronaphthalen-1-yl)phenyl)pyrrolidin-3-yl)methyl)-1-oxo-1,3,5,5a,6,7,8,9-octahydro-2H-pyrazino[1′,2′:4,5][1,4]oxazino[2,3-e]isoindol-2-yl)piperidine-2,6-dione]	1 to 10	
< 10	O=C1CCC(N2Cc3cc4c(cc3C2=O)OC[C@@H]2CN(C(=O)CN3CC(Nc5ccc([C@@H]6c7ccc(O)cc7CC[C@@H]6c6ccccc6)cc5)C3)CCN42)C(=O)N1 (stereo partly drawn) [Compound B204, 3-((S)-3-(2-(3-((4-((1R,2S)-6-hydroxy-2-phenyl-1,2,3,4-tetrahydronaphthalen-1-yl)phenyl)amino)azetidin-1-yl)acetyl)-8-oxo-1,2,3,4,4a,5,8,10-octahydro-9H-pyrazino[1′,2′:4,5][1,4]oxazino[2,3-f]isoindol-9-yl)piperidine-2,6-dione]	< 1	
< 10	O=C1CCC(N2Cc3cc4c(cc3C2=O)OC[C@@H]2CN(C3CN(C5CCN(c6ccc([C@@H]7c8ccc(O)cc8CC[C@@H]7c7ccccc7)cc6)CC5)C3)CCN42)C(=O)N1 (stereo partly drawn) [Compound B167, 3-((S)-3-(1-(1-(4-((1R,2S)-6-hydroxy-2-phenyl-1,2,3,4-tetrahydronaphthalen-1-yl)phenyl)piperidin-4-yl)azetidin-3-yl)-8-oxo-1,2,3,4,4a,5,8,10-octahydro-9H-pyrazino[1′,2′:4,5][1,4]oxazino[2,3-f]isoindol-9-yl)piperidine-2,6-dione]	< 1	
10 to 100	O=C1CCC(N2Cc3cc4c(cc3C2=O)OC[C@@H]2CN(CC(=O)N3CCC5(CC3)CCN(c3ccc([C@H]6c7ccc8[nH]ncc8c7CC[C@H]6c6ccccc6)cc3)CC5)CCN42)C(=O)N1 (stereo partly drawn) [Compound B390, 3-((S)-8-oxo-3-(2-oxo-2-(9-(4-((6S,7R)-7-phenyl-6,7,8,9-tetrahydro-3H-benzo[e]indazol-6-yl)phenyl)-3,9-diazaspiro[5.5]undecan-3-yl)ethyl)-1,2,3,4,4a,5,8,10-octahydro-9H-pyrazino[1′,2′:4,5][1,4]oxazino[2,3-f]isoindol-9-yl)piperidine-2,6-dione]	> 10	
> 100	O=C1CCC(N2Cc3c(ccc4c3OC[C@H]3CN(CC5CC6(CCN(c7ccc([C@@H]8c9ccc(O)cc9CC[C@@H]8c8ccccc8)cc7)C6)C5)CCN43)C2=O)C(=O)N1 (stereo partly drawn) [Compound B232, 3-((R)-7-((6-(4-((1R,2S)-6-hydroxy-2-phenyl-1,2,3,4-tetrahydronaphthalen-1-yl)phenyl)-6-azaspiro[3.4]octan-2-yl)methyl)-1-oxo-1,3,5,5a,6,7,8,9-octahydro-2H-pyrazino[1′,2′:4,5][1,4]oxazino[2,3-e]isoindol-2-yl)piperidine-2,6-dione]	1 to 10	
> 100	O=C1CCC(N2Cc3cc4c(cc3C2=O)CC2(C4)CN(C[C@@H]3CCN(c4ccc([C@@H]5c6ccc(O)cc6CC[C@@H]5c5ccccc5)cc4)C3)C2)C(=O)N1 (stereo partly drawn) [Compound B217, 3-(1-(((S)-1-(4-((1R,2S)-6-hydroxy-2-phenyl-1,2,3,4-tetrahydronaphthalen-1-yl)phenyl)pyrrolidin-3-yl)methyl)-1′-oxo-5′,7′-dihydro-1'H-spiro[azetidine-3,6′-cyclopenta[f]isoindol]-2'(3'H)-yl)piperidine-2,6-dione]	1 to 10	
10 to 100	O=C1CCC(N2Cc3cc4c(cc3C2=O)OC[C@@H]2CN(CC(=O)N3CCC5(CC3)CCN(c3ccc([C@@H]6c7ccc(O)cc7CC[C@@H]6c6ccccc6)cn3)CC5)CCN42)C(=O)N1 (stereo partly drawn) [Compound B148, 3-((S)-3-(2-(9-(5-(cis-6-hydroxy-2-phenyl-1,2,3,4-tetrahydronaphthalen-1-yl)pyridin-2-yl)-3,9-diazaspiro[5.5]undecan-3-yl)-2-oxoethyl)-8-oxo-1,2,3,4,4a,5,8,10-octahydro-9H-pyrazino[1′,2′: 4,5][1,4]oxazino[2,3-f]isoindol-9-yl)piperidine-2,6-dione]	1 to 10	
10 to 100	O=C1CCC(N2Cc3c(ccc4c3OC[C@H]3CN(C[C@H]5CCN(c6ccc([C@@H]7c8ccc(O)cc8CC[C@@H]7c7ccccc7)cc6)C5)CCN43)C2=O)C(=O)N1 (stereo partly drawn) [Compound B216, 3-((R)-7-(((R)-1-(4-((1R,2S)-6-hydroxy-2-phenyl-1,2,3,4-tetrahydronaphthalen-1-yl)phenyl)pyrrolidin-3-yl)methyl)-1-oxo-1,3,5,5a,6,7,8,9-octahydro-2H-pyrazino[1′,2′:4,5][1,4]oxazino[2,3-e]isoindol-2-yl)piperidine-2,6-dione]	> 10	
< 10	O=C1CCC(N2Cc3cc4c(cc3C2=O)OC[C@@H]2CN(CC(=O)N3CC5(CC(Nc6ccc([C@@H]7c8ccc(O)cc8CC[C@@H]7c7ccccc7)cc6)C5)C3)CCN42)C(=O)N1 (stereo partly drawn) [Compound B153, 3-((S)-3-(2-(6-((4-((1R,2S)-6-hydroxy-2-phenyl-1,2,3,4-tetrahydronaphthalen-1-yl)phenyl)amino)-2-azaspiro[3.3]heptan-2-yl)-2-oxoethyl)-8-oxo-1,2,3,4,4a,5,8,10-octahydro-9H-pyrazino[1′,2′:4,5][1,4]oxazino[2,3-f]isoindol-9-yl)piperidine-2,6-dione]	< 1	

Compound	DC50 (ER) [nM]	IC50 ([1]; T47D cell line) [nM]	IC50 [1] [nM]
O=C1CCC(N2Cc3c(ccc4c3OCC43CCN(CC4CC5(CCN(c6ccc([C@@H]7c8ccc(O)cc8CC[C@@H]7c7ccccc7)cc6)CC5)C4)CC3)C2=O)C(=O)N1 (stereo partly drawn) [Compound B313, 3-(1′-((7-(4-((1R,2S)-6-hydroxy-2-phenyl-1,2,3,4-tetrahydronaphthalen-1-yl)phenyl)-7-azaspiro[3.5]nonan-2-yl)methyl)-6-oxo-6,8-dihydro-2H,7H-spiro[furo[2,3-e]isoindole-3,4′-piperidin]-7-yl)piperidine-2,6-dione]	10 to 100		< 1
O=C1CCC(N2Cc3c(ccc4c3OCC43CCN(CC(=O)N4CC5(CCN(c6ccc([C@@H]7c8ccc(O)cc8CC[C@@H]7c7ccccc7)cc6)CC5)C4)CC3)C2=O)C(=O)N1 (stereo partly drawn) [Compound B171, 3-(1′-(2-(7-(4-((1R,2S)-6-hydroxy-2-phenyl-1,2,3,4-tetrahydronaphthalen-1-yl)phenyl)-2,7-diazaspiro[3.5]nonan-2-yl)-2-oxoethyl)-6-oxo-6,8-dihydro-2H,7H-spiro[furo[2,3-e]isoindole-3,4′-piperidin]-7-yl)piperidine-2,6-dione]	< 10		< 1
O=C1CCC(N2Cc3c(ccc4c3OCC43CCN(CC4COC5(CCN(c6ccc([C@@H]7c8ccc(O)cc8CC[C@@H]7c7ccccc7)cc6)CC5)C4)CC3)C2=O)C(=O)N1 (stereo partly drawn) [Compound B229, 3-(1′-((8-(4-((1R,2S)-6-hydroxy-2-phenyl-1,2,3,4-tetrahydronaphthalen-1-yl)phenyl)-1-oxa-8-azaspiro[4.5]decan-3-yl)methyl)-6-oxo-6,8-dihydro-2H,7H-spiro[furo[2,3-e]isoindole-3,4′-piperidin]-7-yl)piperidine-2,6-dione]	10 to 100		1 to 10

— patent US20260028354A1, “TETRAHYDRONAPHTHALENE DERIVATIVES AS ESTROGEN RECEPTOR DEGRADERS” (REGENT OF THE UNIVERSITY OF MICHIGAN, priority 2022, published 2026)
